Measured values from US10259810B2, “N-sulfonylated pyrazolo[3,4-b]pyridin-6-carboxamides and method of use” (AbbVie S.à.r.l., priority 2015, dated 2019).
pEC50: −log10 of the molar value.

Tests used:
ΔF508-CFTR = target: T1, ΔF508-CFTR (Homo sapiens, UniProt P13569, DEL508-508); experiment: CFTR cell surface levels using HRP-tagged ΔF508-CFTR expressing CFBE cells, in the presence of a co-corrector; type: cell-based; details: HRP-tagged ΔF508-CFTR CFBE cells, in the presence of 3 μM co-corrector; for pEC50: read-out: EC50
T1 construct: host or cells: CFBE41o-, doxycycline-inducible
T1 sequence (P13569 with tags, fused parts or gaps DEL508-508): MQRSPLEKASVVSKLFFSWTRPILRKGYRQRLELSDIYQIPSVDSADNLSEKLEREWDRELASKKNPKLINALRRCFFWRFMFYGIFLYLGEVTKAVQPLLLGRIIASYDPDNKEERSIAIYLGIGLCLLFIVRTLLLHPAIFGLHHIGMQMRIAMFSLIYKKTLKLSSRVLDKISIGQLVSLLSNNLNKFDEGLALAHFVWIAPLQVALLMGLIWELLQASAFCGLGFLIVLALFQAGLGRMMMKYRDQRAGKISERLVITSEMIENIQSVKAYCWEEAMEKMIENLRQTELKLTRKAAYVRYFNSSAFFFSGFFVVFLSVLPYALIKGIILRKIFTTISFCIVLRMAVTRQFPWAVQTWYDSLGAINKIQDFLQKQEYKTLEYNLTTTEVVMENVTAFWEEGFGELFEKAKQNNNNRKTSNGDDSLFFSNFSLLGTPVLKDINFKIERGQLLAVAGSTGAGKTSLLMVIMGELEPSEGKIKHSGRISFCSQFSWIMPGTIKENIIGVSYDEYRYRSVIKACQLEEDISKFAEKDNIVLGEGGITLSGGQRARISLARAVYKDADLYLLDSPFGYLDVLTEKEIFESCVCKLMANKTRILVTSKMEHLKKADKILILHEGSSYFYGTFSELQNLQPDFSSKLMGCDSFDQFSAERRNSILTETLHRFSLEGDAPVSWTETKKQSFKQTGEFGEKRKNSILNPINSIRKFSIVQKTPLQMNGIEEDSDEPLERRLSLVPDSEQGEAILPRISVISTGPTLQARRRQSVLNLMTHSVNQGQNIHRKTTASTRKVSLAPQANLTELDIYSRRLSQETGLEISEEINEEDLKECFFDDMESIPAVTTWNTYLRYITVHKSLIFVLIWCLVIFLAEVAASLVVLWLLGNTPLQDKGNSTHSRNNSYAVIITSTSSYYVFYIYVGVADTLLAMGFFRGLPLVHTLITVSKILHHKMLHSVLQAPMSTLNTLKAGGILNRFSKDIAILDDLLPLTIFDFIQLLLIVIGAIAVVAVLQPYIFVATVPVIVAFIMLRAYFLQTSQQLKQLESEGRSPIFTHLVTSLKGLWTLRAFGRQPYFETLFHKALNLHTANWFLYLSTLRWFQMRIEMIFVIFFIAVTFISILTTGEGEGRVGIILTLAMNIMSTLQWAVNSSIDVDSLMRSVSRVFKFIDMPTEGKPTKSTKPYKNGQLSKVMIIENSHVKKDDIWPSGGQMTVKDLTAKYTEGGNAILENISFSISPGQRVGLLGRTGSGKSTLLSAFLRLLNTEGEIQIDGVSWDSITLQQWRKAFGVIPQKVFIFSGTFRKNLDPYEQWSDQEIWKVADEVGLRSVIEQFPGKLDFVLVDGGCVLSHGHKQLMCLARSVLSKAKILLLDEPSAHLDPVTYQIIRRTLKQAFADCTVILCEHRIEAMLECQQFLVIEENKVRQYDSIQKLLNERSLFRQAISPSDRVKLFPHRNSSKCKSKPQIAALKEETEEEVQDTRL
Outline: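 Chemiluminescent read-out of surface HRP (15 min, dark) after PBS washes. Activity is normalized as 100×(sample−DMSO)/(3 μM co-corrector alone−DMSO).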

CFTR ΔF508 = target: T2, CFTR ΔF508 (Homo sapiens, UniProt P13569, DEL508-508); experiment: Acute TECC assay, primary bronchial epithelial cells of CF patients homozygous for CFTR ΔF508, with and without co-corrector; type: cell-based; details: 24 h, Ieq based on maximum current, normalized to DMSO and positive control; for % Activity at 3 μM (Ieq*): 3 μM compound
T2 construct: bronchial epithelial cells isolated from CF patients homozygous for the CFTR ΔF508 mutation; McGill University; Asterand; University of North Carolina hAEC-CF; host or cells: primary human bronchial epithelial cells from CF patients homozygous for ΔF508, differentiated at air-liquid interface
T2 sequence (P13569 with tags, fused parts or gaps DEL508-508): as above
Description: Primary Bronchial Epithelial Cells Protocol
The TECC (Tranepithelial Clamp Circuit, EP-design) assay measures the functionality of the cystic fibrosis Transmembrane Conductance regulator (CFTR) by measuring the short circuit current (Isc) generated over the basolateral and apical membrane of lung epithelial cells. In TECC the transepithelial potential PD and transepithelial resistance (Rt) are measured in an open circuit and transformed to Ieq using Ohm's law. 24 Wells can be measured simultaneously allowing a higher throughput compared to Ussing chambers.
For this purpose, bronchial epithelial cells isolated from CF patients homozygous for the CFTR ΔF508 mutation (hAEC-CF, Epithelix, Geneva, Switzerland; McGill University, Montreal, Qc; Asterand, Detroit, Mich.; University of North Carolina, Chapel Hill, N.C.) are plated on type IV collagen-coated Transwell® supports (Costar). Human airway epithelia are generated by provision of an air-liquid interface for 21 days to form well-differentiated polarized cultures that resemble in vivo pseudo-stratified ciliated epithelium (Fulcher, M. L., Gabriel, S., Burns, K. A., Yankaskas, J. R., Randell, S. H., 2005. Well-differentiated human airway epithelial cell cultures. Methods Mol. Med. 107, 183-206). The differentiated cells are treated with test corrector compound(s) (corrector alone or in combination with co-corrector, 4-[(2R,4R)-4-({[1-(2,2-difluoro-1,3-benzodioxol-5-yl)cyclopropyl]carbonyl}amino)-7-methoxy-3,4-dihydro-2H-chromen-2-yl]benzoic acid (“acute”) or test corrector compounds, co-corrector and potentiator, N-(3-carbamoyl-5,5,7,7-tetramethyl-4,7-dihydro-5H-thieno[2,3-c]pyran-2-yl)-1H-pyrazole-5-carboxamide (“chronic”) for 24 hours basolaterally to allow sufficient expression of properly folded CFTR protein on the membrane. All compound plates contained negative controls (DMSO) and positive controls (0.15 μM, 4-[(2R,4R)-4-({[1-(2,2-difluoro-1,3-benzodioxol-5-yl)cyclopropyl]carbonyl}amino)-7-(difluoromethoxy)-3,4-dihydro-2H-chromen-2-yl]benzoic acid).
For electrophysiological recording of the “acute” experiments, the human airway epithelia are mounted in the TECC heating plate and kept at 37° C. The epithelia are bathed in a NaCl-Ringer solution (120 mM NaCl, 25 mM NaHCO3, 1.2 mM CaCl2, 1.2 mM MgCl2, 0.8 mM KH2PO4, 0.8 mM K2HPO4, pH 7.4, 5 mM glucose) on both the basolateral and apical sides. Apical amiloride is used to inhibit the endogenous epithelial sodium channel (ENaC) currents while forskolin is applied on both apical and basolateral side to stimulate CFTR. CFTR activity is measured by addition of forskolin followed by addition of a potentiator, N-(3-carbamoyl-5,5,7,7-tetramethyl-4,7-dihydro-5H-thieno[2,3-c]pyran-2-yl)-1H-pyrazole-5-carboxamide, on both sides. The potentiator, 3-amino-N-[(2S)-2-hydroxypropyl]-5-{[4-(trifluoromethoxy)phenyl]sulfonyl}pyridine-2-carboxamide, was used in place of N-(3-carbamoyl-5,5,7,7-tetramethyl-4,7-dihydro-5H-thieno[2,3-c]pyran-2-yl)-1H-pyrazole-5-carboxamide in some assays. Measurements are done during a 20 minute timeframe with recordings every 2 minutes. […] Inhibitor-172, an inhibitor specific for CFTR, is used to test the specificity of the tested compounds. Raw data were normalized to percentage activity values using the equation: 100×(Sample−Negative control)/(Positive control−Negative Control).

## CS(=O)(=O)NC(=O)c1cc(-c2ccc(N3CCC(C#N)CC3)nc2)c2c(C3CCC3)nn(C3CCCCC3)c2n1 [Compound 104, 4-[6-(4-cyanopiperidin-1-yl)pyridin-3-yl]-3-cyclobutyl-1-cyclohexyl-N-(methanesulfonyl)-1H-pyrazolo[3,4-b]pyridine-6-carboxamide]
ΔF508-CFTR
  % Activation: 411.33%
  pEC50: 6.46
CFTR ΔF508; 3 μM compound with co-corrector
  % Activity at 3 μM with co-corrector (Ieq*): 102.36%

## Cc1nn(-c2ccccc2)c2nc(C(=O)NS(C)(=O)=O)cc(N3CCCCC3)c12 [Compound 13, N-(methanesulfonyl)-3-methyl-1-phenyl-4-(piperidin-1-yl)-1H-pyrazolo[3,4-b]pyridine-6-carboxamide]
ΔF508-CFTR
  % Activation: 341.75%
  pEC50: 5.83
CFTR ΔF508; without co-corrector
  % Activity at 3 μM (Ieq*): 74.32%
CFTR ΔF508; 10 μM compound, without co-corrector
  % Activity at 10 μM (Ieq*): 174.53%

## CC(C)c1nn(-c2cccc(N3CCC3)c2)c2nc(C(=O)NS(C)(=O)=O)cc(-c3ccc(N4CCOCC4)cc3)c12 [Compound 10, 1-[3-(azetidin-1-yl)phenyl]-N-(methanesulfonyl)-4-[4-(morpholin-4-yl)phenyl]-3-(propan-2-yl)-1H-pyrazolo[3,4-b]pyridine-6-carboxamide]
ΔF508-CFTR
  % Activation: 606.5%
  pEC50: 6.35
CFTR ΔF508; without co-corrector
  % Activity at 3 μM (Ieq*): 591.84%

## CC(C)c1nn(C2CCCCC2)c2nc(C(=O)NS(C)(=O)=O)cc(-c3cnc(N4CCOCC4)nc3)c12 [Compound 11, 1-cyclohexyl-N-(methanesulfonyl)-4-[2-(morpholin-4-yl)pyrimidin-5-yl]-3-(propan-2-yl)-1H-pyrazolo[3,4-b]pyridine-6-carboxamide]
ΔF508-CFTR
  % Activation: 381.33%
  pEC50: 6.34
CFTR ΔF508; without co-corrector
  % Activity at 3 μM (Ieq*): 351%
